SMILES strings stand for the structures.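 All cell lines were grown in 96-well plates and treated with compound for 48 hours. GI50 marks 50% less growth.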 The source made the active and inactive calls. Cut-off read from the data, not from the text of the source: active = GI50 up to about 1.1 µM and inactive = higher. A value given as a limit tells only on which side of the number the result lay.

Among the test systems are SNB-75; SK-MEL-28; CAKI-1; KM12; OVCAR-4; NCI-H522; RXF 393; UO-31; SF-295; SK-MEL-5; HOP-62; Hs-578T; MDA-MB-231; Malme-3M; K562; T47D; OVCAR-8; IGROV-1; ACHN; A498.
Common to all, as to test: DTP human tumour cell line panel, 48 h

In the case of `Cc1ccc(/C=C2\NC(=S)NC2=O)cc1`, the GI50 (usually the concentration that inhibits growth by half) in the test with SNB-75 was > 100 µM (inactive); in the test on SK-MEL-28, > 100 µM (inactive); in the test on CAKI-1, > 100 µM (inactive); with KM12 it was > 100 µM (inactive); with OVCAR-4, 62.8 µM (inactive); with NCI-H522 it was > 100 µM (inactive). The GI50 with RXF 393, in the test with UO-31, with SF-295, with SK-MEL-5, with HOP-62 and in the test on Hs-578T was > 100 µM (inactive) in each case. Further, the GI50 in the test on MDA-MB-231, in the test on Malme-3M, in the test on K562, in the test with T47D, with OVCAR-8 and with IGROV-1 was > 100 µM (inactive) in each case.

Regarding `CC(=O)N1CCN(C23OC4(N5CCN(C(C)=O)CC5)C5C6CC(C7C6C4C72)C53)CC1` (configuration not stated), the GI50 with SNB-75, in the test with CAKI-1, with KM12, in the test with OVCAR-4, in the test with NCI-H522 and with RXF 393 was > 100 µM (inactive) each time. In addition, the GI50 with UO-31, in the test with SF-295, in the test with SK-MEL-5, in the test on HOP-62, in the test on Hs-578T and in the test with MDA-MB-231 was > 100 µM (inactive) each time. Moreover, the GI50 in the test with Malme-3M, with K562, with ACHN, in the test with T47D, with OVCAR-8 and in the test on IGROV-1 was > 100 µM (inactive) each time.

As to `C=CCNC(=O)NC(=O)CSC1=NC(=O)C2(NN1)c1ccccc1-c1ccccc12`, the GI50 in the test on SNB-75, with SK-MEL-28, in the test with CAKI-1, in the test on KM12, in the test on OVCAR-4 and in the test on NCI-H522 was > 10 µM (inactive) in each case. The GI50 with RXF 393 is > 10 µM (inactive); with UO-31, 9.62 µM (inactive); with SF-295 it was > 10 µM (inactive); in the test on SK-MEL-5 it was > 10 µM (inactive); in the test with HOP-62, > 10 µM (inactive); in the test on Hs-578T it was 9.51 µM (inactive). Also, the GI50 in the test on MDA-MB-231, in the test on Malme-3M, in the test on K562, with ACHN, in the test on T47D and in the test on OVCAR-8 was > 10 µM (inactive) throughout. Besides, in the test with IGROV-1, the GI50 was > 10 µM (inactive).

On to `COc1cc2c3c(n(C)c(=O)c2cc1OC)-c1cc2c(cc1/C3=C\CCCI)OCO2`, for which the GI50 with CAKI-1 was 4.35 µM (inactive); in the test with KM12 it was > 87.9 µM (inactive); in the test on NCI-H522, 6.75 µM (inactive); with A498, 2.38 µM (inactive); in the test with RXF 393, 10.6 µM (inactive); in the test on UO-31 it was 0.653 µM (active). The concentration for 50% growth inhibition (GI50) was 0.904 µM (active) in the test with SF-295; 10.4 µM (inactive) in the test with SK-MEL-5; 10 µM (inactive) with HOP-62; 4.11 µM (inactive) in the test with Hs-578T; 2.23 µM (inactive) with Malme-3M; 2.07 µM (inactive) in the test with K562. The GI50 in the test on ACHN was 0.531 µM (active); in the test with T47D, 0.7 µM (active); in the test on OVCAR-8 it was 1.73 µM (inactive); in the test on IGROV-1, 1.58 µM (inactive).

As for `N=c1oc2ccccc2cc1-c1nc2ccccc2c(=O)[nH]1`, the GI50 in the test with SNB-75 is 2.72 µM (inactive); in the test on SK-MEL-28, > 100 µM (inactive); in the test on CAKI-1 it was > 100 µM (inactive); in the test on KM12 it was 39.8 µM (inactive); with OVCAR-4, > 100 µM (inactive); in the test on NCI-H522 it was 14.7 µM (inactive). The GI50 is 31.4 µM (inactive) in the test with RXF 393; 27.1 µM (inactive) in the test with UO-31; 32.7 µM (inactive) in the test on SF-295; > 100 µM (inactive) with SK-MEL-5; 22.7 µM (inactive) with HOP-62; 23.2 µM (inactive) in the test on Hs-578T. Besides, the GI50 was 29.3 µM (inactive) with MDA-MB-231; 60.8 µM (inactive) in the test with Malme-3M; > 100 µM (inactive) with K562; 22.1 µM (inactive) in the test on ACHN; > 100 µM (inactive) with T47D; 60.3 µM (inactive) with OVCAR-8. In addition, the GI50 with IGROV-1 is 6 µM (inactive).

In the case of `c1ccc2c(c1)c1c(n2CCOCCN2CCCCC2)CCCC1`, the GI50 in the test on SNB-75 is 11.6 µM (inactive); in the test with SK-MEL-28, 24.6 µM (inactive); in the test with KM12, 13 µM (inactive); in the test on OVCAR-4 it was 11.1 µM (inactive); in the test on UO-31 it was 11.1 µM (inactive); in the test on SF-295 it was 16.2 µM (inactive). Besides, the GI50 was 8.43 µM (inactive) with SK-MEL-5; 15.1 µM (inactive) in the test on HOP-62; 14.5 µM (inactive) in the test with Hs-578T; 11.8 µM (inactive) with MDA-MB-231; 13.1 µM (inactive) in the test on Malme-3M; 6.18 µM (inactive) in the test on K562. For the same compound, the GI50 in the test on ACHN was 14.2 µM (inactive); with T47D it was 13.4 µM (inactive); in the test with OVCAR-8, 14 µM (inactive); in the test with IGROV-1, 13.9 µM (inactive).

Take `Cc1c2ccccc2c(C)n2c1nc1ccccc12`: the GI50 with SNB-75 is 12.5 µM (inactive); in the test on SK-MEL-28, 7.85 µM (inactive); in the test with KM12 it was 7.53 µM (inactive); in the test with A498, 5.42 µM (inactive); with RXF 393, 9.44 µM (inactive); with UO-31 it was 5.35 µM (inactive). The GI50 in the test with SF-295 was 4.93 µM (inactive); with SK-MEL-5, 4.44 µM (inactive); in the test on HOP-62, 10 µM (inactive); with Hs-578T, 20.2 µM (inactive); with Malme-3M, 8.69 µM (inactive); in the test on K562, 4.1 µM (inactive). Further, the GI50 in the test with ACHN is 4.06 µM (inactive); in the test with T47D, 17.5 µM (inactive); in the test on OVCAR-8, 4.97 µM (inactive); with IGROV-1 it was 11.6 µM (inactive).

With `CCN(CC)C1CCC(C2c3cc4c(cc3OC(N3CCOCC3)C2C)OCO4)CC1` (configuration not stated), the GI50 in the test on SNB-75 was 61.8 µM (inactive); with SK-MEL-28, 16.3 µM (inactive); in the test with CAKI-1 it was > 100 µM (inactive); in the test with KM12 it was 16.8 µM (inactive); with OVCAR-4 it was > 100 µM (inactive); in the test on NCI-H522 it was 12.4 µM (inactive). The GI50 is 21 µM (inactive) in the test on A498; 10.7 µM (inactive) in the test on RXF 393; 36.9 µM (inactive) with UO-31; 9.46 µM (inactive) in the test with SF-295; 9.31 µM (inactive) in the test with SK-MEL-5; 18.3 µM (inactive) in the test with HOP-62. Besides, the GI50 is 28.7 µM (inactive) in the test with Hs-578T; 21.6 µM (inactive) in the test with Malme-3M; 8.77 µM (inactive) in the test on K562; 16.7 µM (inactive) in the test with ACHN; 14.4 µM (inactive) in the test on T47D; 23.6 µM (inactive) in the test on OVCAR-8. Also, the GI50 in the test with IGROV-1 was > 27.9 µM (inactive).

`O=c1[nH]c(=O)n(C2CC(O)C(CO)O2)cc1OCCCc1ccccc1` (configuration not stated): the GI50 with SNB-75, in the test on SK-MEL-28, with CAKI-1, in the test with KM12, with OVCAR-4 and with NCI-H522 was > 100 µM (inactive) in each case. The GI50 in the test on RXF 393, with UO-31, with SF-295, with SK-MEL-5, with HOP-62 and with Hs-578T was > 100 µM (inactive) throughout. Also, the GI50 in the test on MDA-MB-231, in the test with Malme-3M, in the test on K562, in the test with ACHN, in the test with T47D and with OVCAR-8 was > 100 µM (inactive) each time. Also, the GI50 with IGROV-1 is > 100 µM (inactive).

For the compound `O=c1c2cc([N+](=O)[O-])cnc2sn1-c1ccc(Br)cc1`, the GI50 was 73.5 µM (inactive) in the test with SNB-75; > 100 µM (inactive) in the test on SK-MEL-28; 40.8 µM (inactive) in the test with KM12; 24.5 µM (inactive) in the test on OVCAR-4; 5.5 µM (inactive) in the test on NCI-H522; 51.3 µM (inactive) in the test on UO-31. For the same compound, the GI50 is 17.5 µM (inactive) with SF-295; > 100 µM (inactive) with SK-MEL-5; 36.1 µM (inactive) in the test on HOP-62; 23.7 µM (inactive) in the test on Hs-578T; 28.3 µM (inactive) in the test with MDA-MB-231; 19.1 µM (inactive) with Malme-3M. Further, the GI50 in the test on ACHN is > 100 µM (inactive); in the test with T47D, 6.32 µM (inactive); in the test with OVCAR-8, > 100 µM (inactive); with IGROV-1 it was 81.7 µM (inactive).

As to `CN(C)C1(C(=O)O)CC1`, the GI50 with SNB-75, with SK-MEL-28, in the test on OVCAR-4, in the test with NCI-H522, in the test on A498 and in the test on RXF 393 was > 100 µM (inactive) in each case. Further, the GI50 in the test with SF-295, in the test with SK-MEL-5, in the test on HOP-62, in the test with Hs-578T, in the test on Malme-3M and with K562 was > 100 µM (inactive) in each case. For the same compound, the GI50 in the test on ACHN, in the test with T47D, in the test on OVCAR-8 and in the test on IGROV-1 was > 100 µM (inactive) in each case.

(Values after ChEMBL document CHEMBL1201862, “PubChem BioAssay data set” (2004).)
